Series [1] addresses T1, glutamate racemase from Bacillus subtilis (RacE) (Bacillus subtilis, UniProt P94556). Type of series: biochemical.
The conditions of series [2]: 1 and derivatives thereof; target not determined; cited from earlier work.
The conditions of series [3]: 1 and derivatives thereof; cited from earlier work.
Series [4] concerns the target T1, glutamate racemase from Bacillus subtilis (RacE). The conditions noted are these: BsGR; presented previously; cited from earlier work.

This is an account of results in PMC3129543 (Molecular informatics, 2011).

Where two headings read alike, the source gives them in different places.

T1 sequence (P94556 whole entry): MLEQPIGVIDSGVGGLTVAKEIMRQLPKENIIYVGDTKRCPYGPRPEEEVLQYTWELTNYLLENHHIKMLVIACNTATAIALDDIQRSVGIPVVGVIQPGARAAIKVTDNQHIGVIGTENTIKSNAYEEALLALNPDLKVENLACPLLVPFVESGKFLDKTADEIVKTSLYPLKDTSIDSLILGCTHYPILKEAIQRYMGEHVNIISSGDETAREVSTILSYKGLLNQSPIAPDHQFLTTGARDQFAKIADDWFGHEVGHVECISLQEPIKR

`O=S(=O)(O)c1nc2ccccc2[nH]1` [Compound 1, benzimidazole-2-sulfonic acid]: the ligand efficiency in series [1] turned out to be 0.53 kcal/mol/heavy atom. Besides, in series [1] (verified by global fitting to varying inhibition models), the mode of inhibition entry was “competitive inhibitor”. Besides, the “antibacterial and antifungal activity” value in series [2] is “antibacterial and antifungal activity”. The toxicity result in series [3] is on record as “low toxicity”.

Regarding `O=S(=O)(O)c1ccc(O)c(S(=O)(=O)O)c1` [Compound 3, 4-Hydroxy-1,3-benzenedisulfonic acid], in series [4], the mode of inhibition result is “competitive inhibitors”.

As for `O=C(O)c1cccc(C(=O)O)n1` [Compound 9, dipicolinic acid], the mode of inhibition result in series [4] is listed as “competitive inhibitors”.

Turning to `O=c1c(O)c(O)c(=O)c1=O` [Compound 2, Croconic acid], the mode of inhibition entry in series [4] is “competitive inhibitors”.
